These are literature values, as cited in patent EP0313535B1 (Bristol-Myers Squibb Company, priority 1987, dated 1989).

The structures appear in SMILES notation.

For series [1] the following is noted: metabolite of buspirone.

Take `O=C1CC2(CCCC2)CC(=O)N1CCCCN1CCN(c2ncc(O)cn2)CC1` [5-OH-buspirone]: in series [1], the pharmacological activity entry was “no pharmacological activity”.

As to `c1cnc(N2CCNCC2)nc1` [Example 1-PP, 1-(2-pyrimidinyl)-piperazine], in series [1], the “activity relative to buspirone per se” value was 20-25%.

Consider `O=C1CC2(CCCC2)CC(=O)N1CCCCN1CCN(c2ncccn2)CC1` [buspirone, Buspirone], for which the biological half life (in man (Mayol et al. 1985)) is 2-11 hours. Further, the “variation of the maximum plasma concentration” value (interindividual (Gammans et al. 1986)) is “up to 10 fold”.
